Assay results published in patent US9981972B2, “N-hydroxy bicyclic hydantoin carbamates as tools for identification of serine hydrolase targets” (ABIDE THERAPEUTICS, INC., priority 2014, dated 2018).
“Also recorded” adds a separate entry of the source. Where two headings read alike, the source gives them in different places.

Legend:
ABHD4 [1] = target: T1, ABHD4 (Homo sapiens, UniProt Q8TB40); assay: NAPE substrate hydrolysis assay, ABHD4-transfected HEK293T cell lysates; assay type: biochemical; settings: lysates from ABHD4-transfected HEK293T cells
T1 sequence (Q8TB40 1-342): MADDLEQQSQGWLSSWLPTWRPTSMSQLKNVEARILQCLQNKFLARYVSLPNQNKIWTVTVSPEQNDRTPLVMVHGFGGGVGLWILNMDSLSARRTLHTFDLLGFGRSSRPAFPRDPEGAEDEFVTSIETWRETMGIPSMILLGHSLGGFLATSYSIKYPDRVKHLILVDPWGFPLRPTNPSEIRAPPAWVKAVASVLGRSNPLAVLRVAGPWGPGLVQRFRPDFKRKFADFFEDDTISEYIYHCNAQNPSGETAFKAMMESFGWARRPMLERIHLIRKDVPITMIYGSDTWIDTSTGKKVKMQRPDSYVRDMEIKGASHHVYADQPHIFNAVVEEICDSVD
Procedure: NAPE hydrolysis was measured by following the release of oleic acid from the NAPE substrate (1,2-dioleoyl-sn-glycero-3-phospho (N-arachidonoyl) ethanolamine).

[2] = tested on: serine hydrolases in PC3 cells; assay: ABPP-SILAC, PC3 cells treated in situ, other SH targets; assay type: cell-based, human; settings: 4 h in situ
Procedure: (§1) In situ inhibitor treatments of human cell lines were performed as described previously (Hsu et al., J Med Chem 56, 8270-8279, 2012). Briefly, PC3 or transfected HEK293T cells were grown to confluency in serum-containing media (RPMI or DMEM, respectively). The culture media was then removed and replaced with fresh media containing DMSO or inhibitor at the desired concentration and incubated for 4 hours in a tissue culture incubator (37° C., 5% CO2). Cells were then washed with PBS, harvested, washed with PBS once more, and lysed with a probe sonicator.
(§2) The activity and selectivity of dual ABHD3/4 and ABHD4-preferring inhibitors in PC3 cells by ABPP-SILAC was assessed. Isotopically heavy and light PC3 cells were treated in situ with inhibitor (Compound 37 (1 μM) or Compound 38 (0.5 μM)) or DMSO for 4 h and then lysed and processed for ABPP-SILAC analysis.
Isotopically heavy- and light-labeled PC3 cells were treated with Compound 37 (1 μM) or DMSO for 4 h, respectively, lysed, and then treated Compound 39 (5 μM, 1 h). […] Among the handful of additional SH targets of Compound 37 were ABHD6 and PLA2G7, which were expected based on our ABPP-SILAC studies with FP-biotin (see FIG. 9), and protein-palmitoyl thioesterase 1 (PPT1), which was inhibited by more than 90%. […] Accordingly, PPT1 was not detected in our previous ABPP-SILAC studies with FP-biotin (see FIG. 9). The selective enrichment of PPT1 by Compound 39 was confirmed by performing a probe-versus-probe ABPP-SILAC study, where heavy and light PC3 proteomes were treated with FP-biotin (2.5 μM, 1 h) and Compound 39 (5 μM, 1 h), respectively. PPT1, along with two additional SHs LIPA and DDHD2, were preferentially enriched by Compound 39 over FP-biotin, while most of the other SHs were more strongly enriched by FP-biotin (see FIG. 13). A handful of SHs corresponding mostly to enzymes that were identified in our ABPP-SILAC studies as targets of Compound 37 (see FIGS. 9 and 12), were equivalently enriched by Compound 39 and FP-biotin (see FIG. 13).
(§3) To evaluate the broader selectivity of Compound 26 and Compound 34 across the SH class, heavy and light isotopically-labeled PC3 cells were treated with inhibitor [Compound 34 (1 μM); or Compound 26 (1 or 0.1 μM); 4 h) and DMSO, respectively, followed by ABPP-SILAC analysis with either the FP-biotin probe or the Compound 39 probe. […] Conversely, Compound 34 inhibited >90% of ABHD4 activity, as measured with either the FP-biotin probe or the Compound 39 probe, and cross-reacted with four additional targets—ABHD6, PAFAH2, PLA2G7, and PLA2G15.

mABHD3 = target: T2, mABHD3 (Mus musculus, UniProt Q91ZH7); assay: Gel-based competitive ABPP, recombinant enzyme in transfected HEK293T cell lysates; assay type: biochemical
T2 construct: expressed in transfected cells; host or cells: HEK293T, transient transfection, pCMV-Sport6; lysate used in vitro
T2 sequence (Q91ZH7 1-411): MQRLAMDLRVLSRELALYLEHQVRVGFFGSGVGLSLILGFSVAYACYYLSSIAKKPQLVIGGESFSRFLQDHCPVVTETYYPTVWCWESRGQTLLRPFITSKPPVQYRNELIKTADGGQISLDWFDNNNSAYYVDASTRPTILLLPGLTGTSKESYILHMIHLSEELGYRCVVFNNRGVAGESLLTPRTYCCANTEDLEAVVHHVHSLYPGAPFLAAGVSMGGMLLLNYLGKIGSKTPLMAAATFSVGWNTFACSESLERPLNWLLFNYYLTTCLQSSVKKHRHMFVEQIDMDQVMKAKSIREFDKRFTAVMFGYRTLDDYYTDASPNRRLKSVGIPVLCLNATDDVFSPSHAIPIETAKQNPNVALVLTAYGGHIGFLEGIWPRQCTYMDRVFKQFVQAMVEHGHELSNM
Procedure: HEK293T cells were seeded at 2×10^5 per well on 6 well plates and grown for 48 h. They were then transfected with mABHD3 (pCMV-Sport6), hABHD4 (pcDNA3.1/myc-his), hPPT1 (pCMV6-XL5), or hPPT1 S115A (pCMV6-XL5), by incubating 0.5 μg of DNA with 3 μL of PEI MAX (1 mg/mL, Polysciences, Inc) in serum-free DMEM for 30 min, then adding them to cells. After 48 h cells were either treated with compound in situ, as described above, or harvested for in vitro studies. The […] PPT1 mutation was introduced using QuikChange II Site Directed Mutagenesis Kit (Agilent) with the following primers: […]
Human ABHD3 and ABHD4 were recombinantly expressed by transient transfection in HEK293T cells, and the cell lysates were combined to provide a convenient assay for monitor inhibition of both enzymes by gel-based ABPP (see FIG. 8A).

ABHD4 [3] = target: T1, ABHD4; assay: ABPP-SILAC, PC3 cells treated in situ; assay type: cell-based; parameters: endogenous in cells; host or cells: PC3; settings: 4 h in situ; for inhibition of ABHD4 in PC3 cells: FP-biotin
Procedure: as §1, §2, §3

ABHD4 [4] = target: T1, ABHD4; assay: Gel-based competitive ABPP, recombinant enzyme in transfected HEK293T cell lysates; assay type: biochemical; parameters: myc-his; expressed in transfected cells; host or cells: HEK293T, transient transfection, pcDNA3.1/myc-his; lysate used in vitro; settings: recombinant
Outline: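 Human ABHD4 was expressed by transient transfection in HEK293T cells, and lysates were combined with those expressing ABHD3. Inhibition was monitored by gel-based competitive activity-based protein profiling, with compound applied either in situ to cells or in vitro to lysates.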

[5] = transfected HEK293T lysates, read-out: mABHD3 in vitro potency (IC50)
[6] = transfected HEK293T lysates, read-out: hABHD4 in vitro potency (IC50)

## O=C(ON1C(=O)C2CN(C(=O)N3CCOCC3)CCN2C1=O)N1CCC(CCc2ccc(Cl)cc2)CC1 (stereo not drawn) [Compound 1, 7-(morpholine-4-carbonyl)-1,3-dioxohexahydroimidazo[1,5-a]pyrazin-2(3H)-yl 4-(4-chloro-phenethyl)piperidine-1-carboxylate]
ABHD4 [1]
  effect on NAPE hydrolysis activity of ABHD4: neither Compound 26 nor Compound 1 altered

## COc1ccc(N2CCN(C(=O)ON3C(=O)C4CN(CC5CCN(Cc6ccccc6)CC5)CCN4C3=O)CC2)cc1 (stereo not drawn) [Compound 26, 7-((1-benzylpiperidin-4-yl)methyl)-1,3-dioxohexahydroimidazo[1,5-a]pyrazin-2(3H)-yl 4-(4-methoxyphenyl)piperazine-1-carboxylate]
[2]; 1 or 0.1 μM, PC3
  cross-reacting SHs of >40 quantified: ABHD6 and CPVL
ABHD4 [1]
  effect on NAPE hydrolysis activity of ABHD4: neither Compound 26 nor Compound 1 altered

## O=C(ON1C(=O)C2CN(Cc3ccc(Oc4ccccc4)cc3)CCN2C1=O)N1CCOCC1 (stereo not drawn) [Compound 34, 1,3-dioxo-7-(4-phenoxybenzyl)hexahydroimidazo[1,5-a]pyrazin-2(3H)-yl morpholine-4-carboxylate]
mABHD3; [5]
  IC50: > 10000 nM
[2]; 1 μM, PC3
  additional cross-reacting targets: ABHD6; also recorded: PAFAH2; also recorded: PLA2G7; also recorded: PLA2G15
ABHD4 [1]
  IC50: 500 nM
ABHD4 [3]; PC-3, 1 μM, FP-biotin or Compound 39 probe
  inhibition at 1 µM: > 90%
ABHD4 [4]; [6]
  IC50: ~1000 nM

## COc1ccc(N2CCN(C(=O)ON3C(=O)C4CN(Cc5ccc(Oc6ccccc6)cc5)CCN4C3=O)CC2)cc1 (stereo not drawn) [Compound 37, 1,3-dioxo-7-(4-phenoxybenzyl)hexahydroimidazo[1,5-a]pyrazin-2(3H)-yl 4-(4-methoxyphenyl)piperazine-1-carboxylate]
mABHD3; [5]
  IC50: 7600 nM
[2]; 1 μM, Compound 39 probe
  SHs inhibited in PC3 cells: ABHD4; also recorded: ABHD6; also recorded: PLA2G7
ABHD4 [3]; 1 μM
  inhibition of ABHD4 in PC3 cells: completely inhibited
ABHD4 [4]; combined HEK293T lysates, gel-based ABPP
  preference ABHD4 over ABHD3: preferentially inhibited ABHD4 over ABHD3
ABHD4 [4]; [6]
  IC50: 100 nM

## O=C(ON1C(=O)C2CN(Cc3ccc(Oc4ccccc4)cc3)CCN2C1=O)N1CCC(c2ccccc2)CC1 (stereo not drawn) [Compound 38, 1,3-dioxo-7-(4-phenoxybenzyl)hexahydroimidazo[1,5-a]pyrazin-2(3H)-yl 4-phenylpiperidine-1-carboxylate]
mABHD3; combined HEK293T lysates, gel-based ABPP, read-out: ABHD3 IC50
  IC50: 130 nM
mABHD3; [5]
  IC50: 100 nM
[2]; 0.5 μM, PC3, FP-biotin
  additional targets among 44 serine hydrolases: LIPE and PLA2G7 and ABHD6 and CES2
ABHD4 [3]; 0.5 μM
  inhibition of ABHD4 in PC3 cells: inhibit both ABHD3 and ABHD4
ABHD4 [4]; combined HEK293T lysates, gel-based ABPP, read-out: ABHD4 IC50
  IC50: 30 nM
